Reference: PubChem BioAssay AID1963871 (Molecular Pharmacology Branch, DTP, NCI, 2024)

System: KRAS-mutant PDC multicell tumor spheroid viability
Experiment: Anticancer human tumor 521955-158-R2-J5-PDC patient-derived pancreatic carcinoma cell line growth inhibition [KRAS2]
Conditions: for IC50: curve of first compound; for viability, T/C: stronger effect = lower value
Excerpt: Multicellular complex tumor spheroid response to RAS pathway inhibitors in combination with a targeted agents in patient-derived cell lines with oncogenic KRAS variants from multiple cancer types
A high-throughput screen of multi-cell type tumor spheroids was designed to identify active combinations of targeted small molecules and KRAS pathway inhibitors. Complex spheroids include a stromal component modeled by human endothelial cells (HUVEC) and fibroblasts modeled by human mesenchymal stem cells (MSCs). The concentration ranges selected for each drug and investigational agent were based upon clinically achievable concentrations if the clinical Cmax of the agent was known.
Compounds. The drugs and investigational agents: BI-3406 (NSC825286), BAY-293 (NSC824723), batoprotafib (TNO155; NSC825523), sotorasib (AMG 510; NSC818433), MRTX1257 (NSC819558), elimusertib (BAY 1895344; NSC800525), molibresib (GSK525762; NSC774829), temuterkib (LY3214996; NSC803410), venetoclax (NSC766270), alisertib (NSC759677), olaparib (NSC753686), talazoparib (NSC767125), erdafitinib (NSC781556), ipatasertib (NSC767898), cabozantinib (NSC761068), nintedanib (NSC756659), abemaciclib (NSC768073), docetaxel (NSC628503), trametinib (NSC758246), and sapanisertib (NSC764658) were obtained from the National Cancer Institute (NCI) Developmental Therapeutics Program Chemical Repository. The FDA-approved anticancer drug set is available from the Developmental Therapeutics Program. […] The stock solutions were prepared in dimethyl sulfoxide (DMSO, Sigma-Aldrich, St. Louis, MO, cat. D2650) at 800-fold the tested concentration and stored at -70 degrees C prior to their use. All drugs and investigational agents were tested over a range starting from a high concentration at or near the clinical Cmax and decreasing in half-log increments. If the clinical Cmax for an agent had not been determined, the highest concentration tested was 10 microM.
Cell Culture. All cells were maintained in an incubator at 37 degrees C and 5% CO2 with 95% humidity. The PDC lines were cultured according to standard operating procedures established by the NCI PDMR (https://pdmr.cancer.gov/sops/default.htm). Briefly, all PDCs were thawed and cultured in Matrigel-coated flasks prepared with a working solution of 1X Ham's F-12 nutrient mix, without supplementation (Invitrogen, Waltham, MA, cat. 11765054), 100 U/mL penicillin-streptomycin (Invitrogen, cat. 15140122), and 2.5% Matrigel (Corning Inc., Corning, NY, cat. 354248) for the first three passages. All PDCs were cultured in complete DMEM/F-12 media containing advanced DMEM/F-12 (Invitrogen, cat. 12634028), 4.9% defined fetal bovine serum, heat inactivated (HyClone Laboratories Inc., Logan, UT, cat. SH30070.03HI), 389 ng/mL hydrocortisone (Sigma-Aldrich, cat. H4001), 9.7 ng/mL human EGF recombinant protein (Invitrogen, cat. PHG0313), 23.4 microg/mL adenine (Sigma-Aldrich, cat. A2786), 97.3 U/mL penicillin-streptomycin (Invitrogen, cat. 15140122), 1.9 mM L-glutamine (Invitrogen, cat. 25030081), and 9.7 microM Y-27632 dihydrochloride (Tocris Bioscience, Bristol, United Kingdom, cat. 1254). The PDCs were cultured in complete DMEM/F12 media without 9.7 microM Y-27632 dihydrochloride for at least two passages prior to the screen. The established cell line HOP-62 was cultured in RPMI 1640 medium, HEPES (Invitrogen, cat. 22400105) with 10% defined fetal bovine serum (HyClone Laboratories Inc., cat. SH30070.03) and 2 mM L-glutamine (Invitrogen, cat. 25030081). The pooled donor HUVEC were cultured in endothelial cell growth medium 2 (PromoCell, Heidelberg, Germany, cat. C-22011) and the hMSC were cultured in mesenchymal stem cell growth medium 2 (PromoCell, cat. C-28009). For all experiments, HUVEC and hMSC were used at passages </=5, while the malignant cell lines were used at passages </=15. […]

[1] = second compound 0.1 µM, first compound 0.0316 µM
[2] = second compound 0.1 µM, first compound 0.1 µM
[3] = second compound 0.316 µM, first compound 0.0316 µM
[4] = second compound 0.316 µM, first compound 0.1 µM
[5] = second compound 1 µM, first compound 0.0316 µM
[6] = second compound 1 µM, first compound 0.1 µM
[7] = second compound 3.16 µM, first compound 0.0316 µM
[8] = second compound 3.16 µM, first compound 0.1 µM
[9] = second compound 10 µM, first compound 0.0316 µM
[10] = second compound 10 µM, first compound 0.1 µM
[11] = second compound 0.1 µM, first compound 0.316 µM
[12] = second compound 0.1 µM, first compound 1 µM
[13] = second compound 0.1 µM, first compound 3.16 µM
[14] = second compound 0.1 µM, first compound 10 µM
[15] = second compound 0.316 µM, first compound 0.316 µM
[16] = second compound 0.316 µM, first compound 1 µM
[17] = second compound 0.316 µM, first compound 3.16 µM
[18] = second compound 0.316 µM, first compound 10 µM
[19] = second compound 1 µM, first compound 0.316 µM
[20] = second compound 1 µM, first compound 1 µM
[21] = second compound 1 µM, first compound 3.16 µM
[22] = second compound 1 µM, first compound 10 µM
[23] = second compound 3.16 µM, first compound 0.316 µM
[24] = second compound 3.16 µM, first compound 1 µM
[25] = second compound 3.16 µM, first compound 3.16 µM
[26] = second compound 3.16 µM, first compound 10 µM
[27] = second compound 10 µM, first compound 0.316 µM
[28] = second compound 10 µM, first compound 1 µM
[29] = second compound 10 µM, first compound 3.16 µM
[30] = second compound 10 µM, first compound 10 µM
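Also: viability read after seven days of drug exposure.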

Row | SMILES | IC50 (second compound 0.1 µM) | IC50 (second compound 0.316 µM) | IC50 (second compound 1 µM) | IC50 (second compound 3.16 µM) | IC50 (second compound 10 µM) | viability, T/C [1] | viability, T/C [2] | viability, T/C [3] | viability, T/C [4] | viability, T/C [5] | viability, T/C [6] | viability, T/C [7] | viability, T/C [8] | viability, T/C [9] | viability, T/C [10] | viability, T/C [11] | viability, T/C [12] | viability, T/C [13] | viability, T/C [14] | viability, T/C [15] | further results
1 | CN(C)C/C=C/C(=O)Nc1cc2c(Nc3ccc(F)c(Cl)c3)ncnc2cc1O[C@H]1CCOC1 + C=CC(=O)N1CCN(c2nc(=O)n(-c3c(C)ccnc3C(C)C)c3nc(-c4c(O)cccc4F)c(F)cc23)C(C)C1 | > 100 nM | > 100 nM | > 100 nM | > 100 nM | 75.8 nM | 98.6% | 80.5% | 90.6% | 76.7% | 85.2% | 71% | 59.4% | 69.2% | 51.9% | 49.7% |  |  |  |  |  | viability, T/C (second compound 0.1 µM, first compound 0.000316 µM): 124%; viability, T/C (second compound 0.1 µM, first compound 0.001 µM): 118%; viability, T/C (second compound 0.1 µM, first compound 0.00316 µM): 93.8%; viability, T/C (second compound 0.1 µM, first compound 0.01 µM): 97.2%; viability, T/C (second compound 0.316 µM, first compound 0.000316 µM): 133%; viability, T/C (second compound 0.316 µM, first compound 0.001 µM): 134%; viability, T/C (second compound 0.316 µM, first compound 0.00316 µM): 103%; viability, T/C (second compound 0.316 µM, first compound 0.01 µM): 88.5%; viability, T/C (second compound 1 µM, first compound 0.000316 µM): 120%; viability, T/C (second compound 1 µM, first compound 0.001 µM): 120%; viability, T/C (second compound 1 µM, first compound 0.00316 µM): 99.8%; viability, T/C (second compound 1 µM, first compound 0.01 µM): 84.9%; viability, T/C (second compound 3.16 µM, first compound 0.000316 µM): 99.4%; viability, T/C (second compound 3.16 µM, first compound 0.001 µM): 104%; viability, T/C (second compound 3.16 µM, first compound 0.00316 µM): 89.5%; viability, T/C (second compound 3.16 µM, first compound 0.01 µM): 77%; viability, T/C (second compound 10 µM, first compound 0.000316 µM): 67.4%; viability, T/C (second compound 10 µM, first compound 0.001 µM): 72.4%; viability, T/C (second compound 10 µM, first compound 0.00316 µM): 55.7%; viability, T/C (second compound 10 µM, first compound 0.01 µM): 57.5%
2 | COC(=O)c1ccc2c(C(=Nc3ccc(N(C)C(=O)CN4CCN(C)CC4)cc3)c3ccccc3)c(O)[nH]c2c1 + C=CC(=O)N1CCN(c2nc(=O)n(-c3c(C)ccnc3C(C)C)c3nc(-c4c(O)cccc4F)c(F)cc23)C(C)C1 | 1720 nM | 1540 nM | 727 nM | 1010 nM | 1260 nM | 89.6% | 88.4% | 102% | 88.1% | 113% | 96.4% | 86% | 82.1% | 66.5% | 71.5% | 87% | 75.9% | 21% | 0.16% | 89.9% | viability, T/C [16]: 74.2%; viability, T/C [17]: 10.3%; viability, T/C [18]: 0.14%; viability, T/C [19]: 77%; viability, T/C [20]: 43.5%; viability, T/C [21]: 4.15%; viability, T/C [22]: 0.16%; viability, T/C [23]: 67.9%; viability, T/C [24]: 53.4%; viability, T/C [25]: 2.33%; viability, T/C [26]: 0.14%; viability, T/C [27]: 56.6%; viability, T/C [28]: 61.2%; viability, T/C [29]: 4.87%; viability, T/C [30]: 0.22%
3 | O=C(c1cc(Cc2n[nH]c(=O)c3ccccc23)ccc1F)N1CCN(C(=O)C2CC2)CC1 + C=CC(=O)N1CCN(c2nc(=O)n(-c3c(C)ccnc3C(C)C)c3nc(-c4c(O)cccc4F)c(F)cc23)C(C)C1 | > 10000 nM | > 10000 nM | > 10000 nM | > 10000 nM | > 10000 nM | 115% | 120% | 122% | 110% | 122% | 115% | 99.1% | 109% | 63.5% | 61.9% | 97.1% | 89.6% | 94.2% | 64.8% | 116% | viability, T/C [16]: 103%; viability, T/C [17]: 93.1%; viability, T/C [18]: 77.7%; viability, T/C [19]: 122%; viability, T/C [20]: 103%; viability, T/C [21]: 92.9%; viability, T/C [22]: 73.5%; viability, T/C [23]: 93.9%; viability, T/C [24]: 102%; viability, T/C [25]: 92.6%; viability, T/C [26]: 68.9%; viability, T/C [27]: 65.6%; viability, T/C [28]: 66.2%; viability, T/C [29]: 68.9%; viability, T/C [30]: 43.4%
